{"source": "patent US20120190017A1", "about": "“POLYMORPHISMS IN THE HUMAN GENE FOR THE MULTIDRUG RESISTANCE-ASSOCIATED PROTEIN 1 (MRP-1) AND THEIR USE IN DIAGNOSTIC AND THERAPEUTIC APPLICATIONS” (priority 2001, published 2012)", "tested_on": "MRP-1 mRNA", "assay": "MRP-1 mRNA content in duodenal biopsies from healthy volunteers before and after application of rifampicin", "assay_type": "in vivo, human", "details": "before (A) vs after (B) application of rifampicin, paired T-test p<0.001", "source_text": "FIG. 3: Diagram 1A and 1B represent the correlation of the genotype (wt/wt: 1; wt/mut and mut/mut:2) with MRP-1 mRNA content in duodenal biopsies from healthy volunteers derived from two independent experiments, before (A) and after (B) application of rifampicin. The p-value of the statistical evaluation (Kruskal-Wallis-Test), which result in a genotyp/phenotype correlation is p=0.086. […] Thus, the differences in the MRP-1 mRNA content are based on interindividual differences. The statistical analyses were performed using the computer program SPSS 10.0 (SPSS, Chicago, USA).\nFunctional polymorphisms in the MRP-1 gene (see tables in examples 2 and 4) affect the transport activity and subsequently the levels of drugs which are substrates of MRP-1. […] Three different patient collectives, two show side effects during drug therapy and one for which the MRP-1 mRNA levels had been defined, were analyzed to determine whether MRP-1 polymorphisms correlate with transporter activity and subsequently with alterations in drug activities and side effects. […] For this purpose, the 3 collectives (collective 1: samples with nephrotoxicities after cisplatin therapy; collective 2: liver and kidney side effects; collective 3: samples with defined high or low MRP-1 mRNA levels) were screened for all MRP-1 gene fragments, in which the new SNP's could be detected. […]", "data": [{"compound": "CO[C@H]1/C=C/O[C@@]2(C)Oc3c(C)c(O)c4c(O)c(c(/C=N/N5CCN(C)CC5)c(O)c4c3C2=O)NC(=O)/C(C)=C\\C=C\\[C@H](C)[C@H](O)[C@@H](C)[C@@H](O)[C@@H](C)[C@H](OC(C)=O)[C@@H]1C", "note": "[rifampicin]", "values": [{"measurement": "effect on MRP-1 mRNA expression", "result": "no effect"}]}]}
